Data reported in paper PMC11062922 (Nature Chemical Biology, 2023).
Read-outs that look alike come from different tables or passages of the source.

Experiments:
[1] = biological target: PKN3 (Homo sapiens, UniProt Q6P5Z2); test: NanoBRET in-cell target engagement in HEK293T cells: PKN3; format: cell-based; set-up: full-length PKN3, CSNK2A1 or CSNK2A2 ORF; host or cells: HEK293T;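 note: Full-length PKN3 with C-terminal NanoLuc expressed in HEK293T cells, serial inhibitor dilutions competing against Kinase Tracer K5 at 500 nM, BRET read after 2 h at 37 °C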
[2] = system: MAP2K2; test: Kinobeads competition binding: MAP2K2; set-up: species or system human; conditions: target MAP2K2
[3] = system: JAK2; test: Kinobeads competition binding: JAK2; set-up: species or system human; conditions: target JAK2;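 note: target engagement share of this target among all targets at its Kdapp concentration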
[4] = biological target: T1, FGFR1 (Homo sapiens, UniProt P11362); test: Kinobeads competition binding: FGFR1; conditions: target FGFR1
T1 construct: endogenous in cells
Text: Supplement 41589_2023_1459_MOESM4_ESM.xlsx, sheet "CATDS matrix" | column: FGFR1

[5] = system: BRAF; test: Kinobeads competition binding: BRAF; set-up: species or system human; conditions: target BRAF
[6] = biological target: T2, ACVR1 (Homo sapiens, UniProt Q04771); test: Kinobeads competition binding: ACVR1; conditions: target ACVR1;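 note: target engagement share of this target among all targets at its Kdapp concentration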
T2 construct: to maximize the representation of endogenous proteins; endogenous in cells
T2 sequence (Q04771 21-509): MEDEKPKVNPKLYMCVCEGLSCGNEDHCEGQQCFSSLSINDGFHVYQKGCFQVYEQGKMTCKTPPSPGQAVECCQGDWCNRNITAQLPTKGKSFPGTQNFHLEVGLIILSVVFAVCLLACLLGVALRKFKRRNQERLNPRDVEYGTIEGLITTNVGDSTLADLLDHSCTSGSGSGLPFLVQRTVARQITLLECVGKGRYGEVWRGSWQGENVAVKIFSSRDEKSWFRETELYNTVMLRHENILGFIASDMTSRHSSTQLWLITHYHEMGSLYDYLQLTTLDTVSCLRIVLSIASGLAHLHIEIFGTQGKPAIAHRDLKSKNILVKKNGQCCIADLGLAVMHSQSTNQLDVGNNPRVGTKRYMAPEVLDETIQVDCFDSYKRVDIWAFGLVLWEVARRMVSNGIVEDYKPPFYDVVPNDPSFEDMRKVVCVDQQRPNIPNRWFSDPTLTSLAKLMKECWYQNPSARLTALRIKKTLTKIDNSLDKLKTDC
Text: Supplement 41589_2023_1459_MOESM4_ESM.xlsx, sheet "CATDS matrix" | column: ACVR1

[7] = system: FLAD1; test: Kinobeads competition binding: FLAD1; set-up: species or system human; conditions: target FLAD1;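 note: selectivity score: engagement of this protein divided by summed engagement of all targets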
[8] = biological target: T3, PIK3CD (Homo sapiens, UniProt O00329); test: Kinobeads competition binding: PIK3CD; conditions: target PIK3CD
T3 construct: a mixture of lysates from five cancer cell lines; endogenous in cells

[9] = system: IRAK1; test: Kinobeads competition binding: IRAK1; set-up: species or system human; conditions: target IRAK1
[10] = system: CDK16; test: Kinobeads competition binding: CDK16; set-up: species or system human; conditions: target CDK16
[11] = system: DCK; test: Kinobeads competition binding: DCK; set-up: species or system human; conditions: target DCK;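 note: share of total target engagement due to this protein at one drug concentration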
[12] = biological target: T4, AKT3 (Homo sapiens, UniProt Q9Y243); test: Kinobeads competition binding: AKT3; conditions: target AKT3
T4 construct: endogenous in cells

[13] = biological target: T5, EPHA5 (Homo sapiens, UniProt P54756); test: Kinobeads competition binding: EPHA5; conditions: target EPHA5
T5 construct: endogenous in cells
Text: Supplement 41589_2023_1459_MOESM4_ESM.xlsx, sheet "CATDS matrix" | column: EPHA5

[14] = system: MAP3K12; test: Kinobeads competition binding: MAP3K12; set-up: species or system human; conditions: target MAP3K12
[15] = biological target: T6, NQO1 (Homo sapiens, UniProt P15559); test: Kinobeads competition binding: NQO1; conditions: target NQO1
T6 construct: endogenous in cells
Text: Supplement 41589_2023_1459_MOESM4_ESM.xlsx, sheet "CATDS matrix" | column: NQO1

[16] = system: LCK; test: Kinobeads competition binding: LCK; set-up: species or system human; conditions: target LCK
[17] = HEK293T cells, in-cell target engagement, read-out: IC50 PKN3 NanoBRET
[18] = average of replicates, read-out: Average of IC50 values NanoBRET PKN3
[19] = biological replicate number 1, read-out: Rep 1 IC50 NanoBRET PKN3
[20] = biological replicate number 2, read-out: Rep 2 IC50 NanoBRET PKN3
[21] = biological replicate number 3, read-out: Rep 3 IC50 NanoBRET PKN3
[22] = biological replicate number 4, read-out: Rep 4 IC50 NanoBRET PKN3

SMILES | IC50 [1, 17] | IC50 [1, 18] | IC50 [1, 19] | IC50 [1, 20] | IC50 [1, 21] | CATDS [2] | CATDS [3] | CATDS [4] | CATDS [5] | CATDS [6] | CATDS [7] | CATDS [8] | CATDS [9] | CATDS [10] | CATDS [11] | CATDS [12] | CATDS [13] | CATDS [14] | CATDS [15] | CATDS [16] | other results
CCn1c(-c2nonc2N)nc2c(C#CC(C)(C)O)nc(OCCNC)cc21 [GSK949675A] | 136 nM | 669 nM | 1950 nM | 441 nM | 149 nM |  |  |  |  |  |  |  |  |  |  |  |  |  |  |  | 
CCc1cc2c(cc1N1CCC(N3CCOCC3)CC1)C(C)(C)c1[nH]c3cc(C#N)ccc3c1C2=O [Alectinib] |  |  |  |  |  | 0 | 0 | 0 | 0 | 0 | 0 | 0 | 0 | 0 | 0 | 0 | 0 | 0 | 0 | 0 | 
CCN1CCN(Cc2ccc(Nc3ncc(F)c(-c4cc(F)c5nc(C)n(C(C)C)c5c4)n3)nc2)CC1 [Abemaciclib] |  |  |  |  |  | 0 | 0 | 0 | 0 | 0 | 0 | 0 | 0.02986 | 0.02651 | 0 | 0 | 0 | 0 | 0 | 0 | 
Nc1ncnc2[nH]c(-c3ccccc3)nc12 [AH5015_KCGS] |  |  |  |  |  | 0 | 0 | 0 | 0 | 0 | 0 | 0.05532 | 0 | 0 | 0 | 0 | 0.02942 | 0 | 0 | 0 | 
CCn1c(-c2nonc2N)nc2c(C#CC(C)(C)O)nc(OCCN)cc21 [GSK902056A] | 79 nM | 99.2 nM | 234 nM | 56.5 nM | 27 nM |  |  |  |  |  |  |  |  |  |  |  |  |  |  |  | IC50 [1, 22]: 79.2 nM
N#CC1(c2ccc(NC(=O)c3cccnc3NCc3ccncc3)cc2)CCCC1 [Apatinib] |  |  |  |  |  | 0 | 0 | 0 | 0 | 0 | 0 | 0 | 0 | 0 | 0 | 0 | 0 | 0 | 0 | 0 | 
NCc1ccc(-c2nc(-c3ccncc3)c(-c3ccc(Cl)c(O)c3)[nH]2)cc1 [SB-476429-A] | 85 nM | 243 nM | 589 nM | 211 nM | 86.7 nM |  |  |  |  |  |  |  |  |  |  |  |  |  |  |  | IC50 [1, 22]: 85.4 nM
CN(C)C/C=C/C(=O)Nc1cc2c(Nc3ccc(F)c(Cl)c3)ncnc2cc1O[C@H]1CCOC1 [Afatinib] |  |  |  |  |  |  |  | 0 |  | 0 | 0 |  |  |  | 0 |  | 0 |  | 0 |  | 
